Results: US9938292B2 (GUANGDONG ZHONGSHENG PHARMACEUTICAL CO., LTD, priority 2014, dated 2018)

tested on: Hedgehog signaling pathway; test: Gli-Luc luciferase reporter gene assay in C3H10T1/2/Gli-Luc cells under Shh-N stimulation; type: cell-based; conditions: Mus musculus, C3H 10T1/2, 24 h, luciferase RLU, read-out: biological activity: IC50 of the inhibitory activities of compounds on the hedgehog pathway
Excerpt: The luciferase (Gli-Luc) reporter gene with Gli response element was transfected into C3H10T1/2 cells, under Shh-N stimulation conditions, determine the Hedgehog signaling pathway inhibitors through the detection of gene expression in cell activity report. In this study, we evaluated the inhibitory effects of compounds on Hedgehog signaling pathway in the IC50 value of the compound as an index.
Cell lines: C3H10T1/2/Gli-Luc stable cell line • C3H10T1/2/Gli-Luc Cell culture medium (DMEM/high glucose HyClone, #SH30022.01B; 10% serum Hyclone, #SV30087; 0.4% Hygromycin B Roche, #13398200) • 0.25% Trypsin-EDTA (Gibco, #25200)
Shh-N, HEK293/SHH-N stable cell culture supernatant
Inoculate the logarithmic growth phase of C3H10T1/2/Gli-Luc cells into a 96-well culture plate with 20000 cells per well, cells were cultured in a 37° C., 5% CO2 incubator overnight. The next day, the compounds were diluted in the following ways: the positive compound GDC0449 (1 mM) and the compounds (1 mM) to be measured were serially diluted to 7 concentrations by DMSO according to 1:3 and 1:10 respectively, the eighth is for DMSO control, and then diluted with fresh medium 100 times. The medium of the cells cultured overnight was removed, 80 μL fresh culture medium was added per well, then 20 μL gradiently diluted positive compound and compounds to be measured and 100 μL 30 nM Shh-N containing conditioned medium were added, each concentration repeated 2 wells, at the same time, positive and negative reference well were set (i.e. Shh Ctrl: 80 μL fresh medium+20 μL 1% DMSO containing medium+100 μL 30 nM Shh-N containing conditioned medium; Unstimulated Ctrl: 180 μL fresh medium+20 μL 1% DMSO containing medium), cells were cultured in the incubator for further 24 h.
Intracellular luciferase activity detection: take the cells out of 96-well plate, discard the culture medium, the cells were washed with PBS twice, then each well added with 20 μL lysate (Promega E1531), oscillate pyrolysis at room temperature for 30 min. 5 μL cell lysates were transferred to 384-well plate (Greiner 781074), then each well was added with 25 μL luciferase reaction liquid (Promega E1501), after rapid mixed, immediately placed into the VarioSkan Flash multi-function reading instrument to read the relative light units (RLU) value.
Data analysis: using Prism's GraphPad 5 for data analysis. RLU reading to the logarithmic mapping of compound concentration on behalf of luciferase activity, and then curve fitting using the following equation to give IC50 value, Y (RLU)=minimum+(maximum−minimum)/(1+10^(log of compound concentration−Log IC50)).

Row | SMILES | IC50 [nM]
1 | C[C@@H]1CN(c2ccc(-n3ccc4c(-c5ccc(C(F)(F)F)cc5)cccc4c3=O)cc2)C[C@H](C)O1 [Embodiment 74] | 1000 to 5000
2 | C[C@@H]1CN(c2ccc(-n3ccc4c(-c5ccc(OC(F)(F)F)cc5)cccc4c3=O)cc2)C[C@H](C)O1 [Embodiment 75] | 1000 to 5000
3 | C[C@@H]1CN(c2ccc(-n3cc(Cl)c4c(-c5ccc(C#N)cc5)cccc4c3=O)cc2Cl)C[C@H](C)O1 [Embodiment 76, 4-(4-chloro-2-(3-chloro-4-((2S,6R)-2,6-dimethylmorpholino)phenyl)-1-oxo-1,2-dihydroisoquinolin-5-yl)benzonitrile] | 100 to 500
4 | C[C@@H]1CN(c2ccc(-n3ccc4c(-c5ccc(C#N)cc5)cccc4c3=O)cc2Cl)C[C@H](C)O1 [Embodiment 77, 4-(2-(3-chloro-4-((2S,6R)-2,6-dimethylmorpholino)phenyl)-1-oxo-1,2-dihydroisoquinolin-5-yl)benzonitrile] | 500 to 1000
5 | C[C@@H]1CN(c2ccc(-n3ccc4c(-c5ccc(C#N)cc5)cccc4c3=O)cc2Br)C[C@H](C)O1 [Embodiment 79, 4-(2-(3-bromo-4-((2S,6R)-2,6-dimethylmorpholino)phenyl)-1-oxo-1,2-dihydroisoquinolin-5-yl)benzonitrile] | 500 to 1000
6 | Cc1cn(-c2ccc(N3C[C@@H](C)O[C@@H](C)C3)cc2)c(=O)c2ccnc(-c3ccc(C#N)cc3)c12 [Embodiment 81, 4-(6-(4-((2S,6R)-2,6-dimethylmorpholino)phenyl)-8-methyl-5-oxo-5,6-dihydro-2,6-naphthyridin-1-yl)benzonitrile] | 1000 to 5000
7 | Cc1cn(-c2ccc(N3C[C@@H](C)O[C@@H](C)C3)cc2)c(=O)c2ccnc(-c3ccc(OC(F)(F)F)cc3)c12 [Embodiment 83] | 1000 to 5000
8 | Cc1cn(-c2ccc(N3C[C@@H](C)O[C@@H](C)C3)cc2)c(=O)c2ccnc(-c3ccc(C#N)s3)c12 [Embodiment 84] | 1000 to 5000
9 | Cc1cn(-c2ccc(N3C[C@@H](C)O[C@@H](C)C3)cc2)c(=O)c2nccc(-c3ccc(C#N)cc3)c12 [Embodiment 85, 4-(7-(4-((2S,6R)-2,6-dimethylmorpholino)phenyl)-5-methyl-8-oxo-7,8-dihydro-1,7-naphthyridin-4-yl)benzonitrile] | 500 to 1000
10 | CC1CN(c2ccc(N3C[C@@H](C)O[C@@H](C)C3)cc2)C(=O)c2cccc(-c3ccc(C#N)cc3)c21 (stereo partly drawn) [Embodiment 87, 4-(2-(4-((2S,6R)-2,6-dimethylmorpholino)phenyl)-4-methyl-1-oxo-1,2,3,4-tetrahydroisoquinolin-5-yl)benzonitrile] | 100 to 500
11 | COc1c(-c2ccc(N3C[C@@H](C)O[C@@H](C)C3)cc2)cnc2c(-c3ccc(C#N)cc3)cccc12 [Embodiment 88, 4-(3-(4-((2S,6R)-2,6-dimethylmorpholino)phenyl)-4-methoxyquinolin-8-yl) benzonitrile] | ≤ 50
12 | COc1c(-c2ccc(N3C[C@@H](C)O[C@@H](C)C3)cc2)cnc2c(-c3ccc(C(F)(F)F)cc3)cccc12 [Embodiment 89, (2R,6S)-4-(4-(4-methoxy-8-(4-(trifluoromethyl)phenyl)quinolin-3-yl)phenyl)-2,6-dimethylmorpholine] | ≤ 50
13 | COc1c(-c2ccc(N3C[C@@H](C)O[C@@H](C)C3)cc2)cnc2c(-c3ccc(OC(F)(F)F)cc3)cccc12 [Embodiment 91] | ≤ 50
14 | COc1c(-c2ccc(N3C[C@@H](C)O[C@@H](C)C3)cc2)cnc2c(-c3ccc(F)nc3)cccc12 [Embodiment 93] | ≤ 50
15 | COc1c(-c2ccc(N3C[C@@H](C)O[C@@H](C)C3)cc2)cnc2c(-c3ccc(C)nc3)cccc12 [Embodiment 94] | ≤ 50
16 | COc1c(-c2ccc(N3C[C@@H](C)O[C@@H](C)C3)cc2)cnc2c(-c3ccc(Cl)nc3)cccc12 [Embodiment 95] | ≤ 50
17 | COc1c(-c2ccc(N3C[C@@H](C)O[C@@H](C)C3)cc2)cnc2c(-c3ccc(Cl)c(Cl)c3)cccc12 [Embodiment 98] | ≤ 50
18 | COc1ccc(-c2cccc3c(OC)c(-c4ccc(N5C[C@@H](C)O[C@@H](C)C5)cc4)cnc23)cn1 [Embodiment 100] | 100 to 500
19 | CNC(=O)c1ccc(-c2cccc3c(OC)c(-c4ccc(N5C[C@@H](C)O[C@@H](C)C5)cc4)cnc23)cn1 [Embodiment 101] | 100 to 500
20 | COc1c(-c2ccc(N3C[C@@H](C)O[C@@H](C)C3)cc2)cnc2c(-c3ccc(S(C)(=O)=O)cc3Cl)cccc12 [Embodiment 103] | 50 to 100
21 | COc1c(-c2ccc(N3C[C@@H](C)O[C@@H](C)C3)cc2)cnc2c(-c3ccc(C(F)(F)F)nc3)cccc12 [Embodiment 106] | 50 to 100
22 | COc1c(-c2ccc(N3C[C@@H](C)O[C@@H](C)C3)cc2)cnc2c(-c3cnc(N(C)C)nc3)cccc12 [Embodiment 110] | 100 to 500
23 | COc1c(-c2ccc(N3C[C@@H](C)O[C@@H](C)C3)cc2)cnc2c(-c3ccc(-c4ncc[nH]4)cc3)cccc12 [Embodiment 111] | 100 to 500
24 | COc1c(-c2ccc(N3C[C@@H](C)O[C@H](C)C3)cc2)cnc2c(-c3ccc(C#N)cc3)cccc12 [Embodiment 112] | ≤ 50
25 | COc1c(-c2ccc(N3C[C@H](C)C[C@H](C)C3)cc2)cnc2c(-c3ccc(C#N)cc3)cccc12 [Embodiment 113] | ≤ 50

Other lines, results leading:

Row | IC50 [nM] | SMILES
26 | 500 to 1000 | C[C@@H]1CN(c2ccc(-n3ccc4c(-c5ccc(C#N)cc5)cccc4c3=O)cc2)C[C@H](C)O1 [Embodiment 73]
27 | 1000 to 5000 | C[C@@H]1CN(c2ccc(-n3ccc4c(-c5ccc(C#N)cc5)cccc4c3=O)cc2C2CC2)C[C@H](C)O1 [Embodiment 80, 4-(2-(3-cyclopropyl-4-((2S,6R)-2,6-dimethylmorpholino)phenyl)-1-oxo-1,2-dihydroisoquinolin-5-yl)benzonitrile]
28 | 1000 to 5000 | Cc1cn(-c2ccc(N3C[C@@H](C)O[C@@H](C)C3)cc2)c(=O)c2ccnc(-c3ccc(C(F)(F)F)cc3)c12 [Embodiment 82]
29 | 500 to 1000 | Cc1cn(-c2ccc(N3C[C@@H](C)O[C@@H](C)C3)cc2)c(=O)c2cncc(-c3ccc(C#N)cc3)c12 [Embodiment 86, 4-(7-(4-((2S,6R)-2,6-dimethylmorpholino)phenyl)-5-methyl-8-oxo-7,8-dihydro-2,7-naphthyridin-4-yl)benzonitrile]
30 | 100 to 500 | COc1c(-c2ccc(N3C[C@@H](C)O[C@@H](C)C3)cc2)cnc2c(-c3ccc(S(=O)(=O)N4CCOCC4)cc3)cccc12 [Embodiment 96]
31 | 100 to 500 | COc1c(-c2ccc(N3C[C@@H](C)O[C@@H](C)C3)cc2)cnc2c(-c3ccncc3)cccc12 [Embodiment 97]
32 | 50 to 100 | COc1c(-c2ccc(N3C[C@@H](C)O[C@@H](C)C3)cc2)cnc2c(-c3ccc(C#N)c(F)c3)cccc12 [Embodiment 102]
33 | ≤ 50 | COc1c(-c2ccc(N3C[C@@H](C)O[C@@H](C)C3)cc2)cnc2c(-c3ccc(C#N)cc3F)cccc12 [Embodiment 104]
34 | ≤ 50 | COc1c(-c2ccc(N3C[C@@H](C)O[C@@H](C)C3)cc2)cnc2c(-c3ccc(C#N)cc3C)cccc12 [Embodiment 105]
35 | 100 to 500 | COc1c(-c2ccc(N3C[C@@H](C)O[C@@H](C)C3)cc2)cnc2c(-c3cnn(C)c3)cccc12 [Embodiment 108]
36 | 50 to 100 | COc1c(-c2ccc(N3C[C@@H](C)O[C@@H](C)C3)cc2)cnc2c(-c3ccc4c(c3)OCO4)cccc12 [Embodiment 109]
